In PubChem BioAssay AID1919003 (Molecular Pharmacology Branch, DTP, NCI, 2023):

System: 786-0 complex spheroids with HUVEC/MSC, growth % test/control
Assay: Anticancer human tumor 786-0 cell line growth inhibition [AhR];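 note: compound exposure lasted seven days before the read-out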
Conditions: for IC50: curve of first compound; for viability, T/C: stronger effect = lower value
Description: Multicellular complex tumor spheroid response to aryl hydrocarbon receptor antagonists in combination with a variety of drugs and investigational agents in selected tumor cell lines
The current study was undertaken to assess response to aryl hydrocarbon receptor antagonists in combination with standard-of-care drugs and investigational agents in solid tumor complex spheroid models. Complex spheroids include a stromal component modeled by human endothelial cells (HUVEC) and fibroblasts modeled by human mesenchymal stem cells (MSCs). The concentration ranges selected for each drug and investigational agent were based upon clinically achievable concentrations if the clinical Cmax of the agent was known.
Compounds. The drugs and investigational agents: BAY 2416964 (NSC825713), GNF351 (NSC835774), CH-223191 (NSC835775), CPI-455 (NSC825282), aza-TdCyd (NSC777586), decitabine (NSC127716), belinostat (NSC758774), entinostat (NSC756642), pevonedistat (NSC761192), tazemetostat (NSC777109), talazoparib (NSC765396), olaparib (NSC753686), selinexor (NSC780203), nedisertib (M3814, NSC802822), bortezomib (NSC756655), venetoclax (NSC766270), doxorubicin (NSC123127), elimusertib (BAY189344, NSC800525), ceralasertib (AZD6738, NSC777638), TAK-243 (NSC785004), alisertib (NSC759677), etoposide (NSC141540), topotecan (NSC609699), eribulin (NSC707389), gemcitabine (NSC613327), carboplatin (NSC241240), cisplatin (NSC119875), and SN-38 (NSC673596) were obtained from the National Cancer Institute (NCI) Developmental Therapeutics Program Chemical Repository (32). The FDA-approved anticancer drug set is available from the Developmental Therapeutics Program at https://dtp.cancer.gov/organization/dscb/obtaining/available plates.htm. […] The stock solutions were prepared in dimethyl sulfoxide (DMSO, Sigma-Aldrich, St. Louis, MO, cat. D2650), except for the platinum compounds which were prepared in saline (Quality Biological, Gaithersburg, MD, cat. 114-055-101), at 800-fold the tested concentration and stored at -70 degrees C prior to their use. All drugs and investigational agents were tested over a range starting from a high concentration at or near the clinical Cmax and decreasing in half-log increments. If the clinical Cmax for an agent had not been determined, the highest concentration tested was 10 microM (Table 1).
Cell Culture. All cells were maintained in an incubator at 37 degrees C and 5% CO2 with 95% humidity. The PDC lines were cultured according to standard operating procedures established by the NCI PDMR (https://pdmr.cancer.gov). Briefly, all PDCs were thawed and cultured in Matrigel-coated flasks prepared with a working solution of 1X Ham's F-12 nutrient mix, without supplementation (Invitrogen, Waltham, MA, cat. 11765054), 100 U/mL penicillin-streptomycin (Invitrogen, cat. 15140122), and 2.5% Matrigel (Corning Inc., Corning, NY, cat. 354248) for the first three passages. All PDCs were cultured in complete DMEM/F-12 media containing advanced DMEM/F-12 (Invitrogen, cat. 12634028), 4.9% defined fetal bovine serum, heat inactivated (HyClone Laboratories Inc., Logan, UT, cat. SH30070.03HI), 389 ng/mL hydrocortisone (Sigma-Aldrich, cat. H4001), 9.7 ng/mL human EGF recombinant protein (Invitrogen, cat. PHG0313), 23.4 microg/mL adenine (Sigma-Aldrich, cat. A2786), 97.3 U/mL penicillin-streptomycin (Invitrogen, cat. 15140122), 1.9 mM L-glutamine (Invitrogen, cat. 25030081), and 9.7 microM Y-27632 dihydrochloride (Tocris Bioscience, Bristol, United Kingdom, cat. 1254). The PDCs were cultured in complete DMEM/F12 media without 10 microM Y-27632 dihydrochloride for at least two passages prior to the screen. The established cell lines NCI-H1341 and […] were cultured in DMEM/F-12, HEPES (Invitrogen, cat. 11330032), 5% defined fetal bovine serum (HyClone Laboratories Inc., cat. SH30070.03), ITS premix universal culture supplement [insulin (5 microg/mL), transferrin (5 microg/mL), and selenious acid (5 ng/mL)] […]

[1] = second compound 0.1 µM, first compound 0.0316 µM
[2] = second compound 0.1 µM, first compound 0.1 µM
[3] = second compound 0.1 µM, first compound 0.316 µM
[4] = second compound 0.1 µM, first compound 1 µM
[5] = second compound 0.1 µM, first compound 3.16 µM
[6] = second compound 0.1 µM, first compound 10 µM
[7] = second compound 0.316 µM, first compound 0.0316 µM
[8] = second compound 0.316 µM, first compound 0.1 µM
[9] = second compound 0.316 µM, first compound 0.316 µM
[10] = second compound 0.316 µM, first compound 1 µM
[11] = second compound 0.316 µM, first compound 3.16 µM
[12] = second compound 0.316 µM, first compound 10 µM
[13] = second compound 1 µM, first compound 0.0316 µM
[14] = second compound 1 µM, first compound 0.1 µM
[15] = second compound 1 µM, first compound 0.316 µM
[16] = second compound 1 µM, first compound 1 µM
[17] = second compound 1 µM, first compound 3.16 µM
[18] = second compound 1 µM, first compound 10 µM
[19] = second compound 3.16 µM, first compound 0.0316 µM
[20] = second compound 3.16 µM, first compound 0.1 µM
[21] = second compound 3.16 µM, first compound 0.316 µM
[22] = second compound 3.16 µM, first compound 1 µM
[23] = second compound 3.16 µM, first compound 3.16 µM
[24] = second compound 3.16 µM, first compound 10 µM
[25] = second compound 10 µM, first compound 0.0316 µM
[26] = second compound 10 µM, first compound 0.1 µM
[27] = second compound 10 µM, first compound 0.316 µM
[28] = second compound 10 µM, first compound 1 µM
[29] = second compound 10 µM, first compound 3.16 µM
[30] = second compound 10 µM, first compound 10 µM

## CCc1c2c(nc3ccc(O)cc13)-c1cc3c(c(=O)n1C2)COC(=O)[C@]3(O)CC + CC(CO)NC(=O)c1cc(-c2ccc(Cl)cc2)nn(-c2cnn(C)c2)c1=O
Second compound 0.1 µM
  IC50: 5.22 nM
Second compound 0.316 µM
  IC50: 4.94 nM
Second compound 1 µM
  IC50: 4.22 nM
Second compound 3.16 µM
  IC50: 3.06 nM
Second compound 10 µM
  IC50: 2.22 nM
Second compound 0.1 µM, first compound 0.000949 µM
  viability, T/C: 98.5%
Second compound 0.1 µM, first compound 0.003 µM
  viability, T/C: 82.1%
Second compound 0.1 µM, first compound 0.00949 µM
  viability, T/C: 15.3%
Second compound 0.1 µM, first compound 0.03 µM
  viability, T/C: 5.93%
Second compound 0.1 µM, first compound 0.0949 µM
  viability, T/C: 2.72%
Second compound 0.1 µM, first compound 0.3 µM
  viability, T/C: 2.09%
Second compound 0.316 µM, first compound 0.000949 µM
  viability, T/C: 88%
Second compound 0.316 µM, first compound 0.003 µM
  viability, T/C: 75.5%
Second compound 0.316 µM, first compound 0.00949 µM
  viability, T/C: 16.6%
Second compound 0.316 µM, first compound 0.03 µM
  viability, T/C: 5.34%
Second compound 0.316 µM, first compound 0.0949 µM
  viability, T/C: 3.26%
Second compound 0.316 µM, first compound 0.3 µM
  viability, T/C: 2.5%
Second compound 1 µM, first compound 0.000949 µM
  viability, T/C: 96.8%
Second compound 1 µM, first compound 0.003 µM
  viability, T/C: 65%
Second compound 1 µM, first compound 0.00949 µM
  viability, T/C: 14.1%
Second compound 1 µM, first compound 0.03 µM
  viability, T/C: 6.51%
Second compound 1 µM, first compound 0.0949 µM
  viability, T/C: 3.19%
Second compound 1 µM, first compound 0.3 µM
  viability, T/C: 2.39%
Second compound 3.16 µM, first compound 0.000949 µM
  viability, T/C: 81.5%
Second compound 3.16 µM, first compound 0.003 µM
  viability, T/C: 50.7%
Second compound 3.16 µM, first compound 0.00949 µM
  viability, T/C: 14.6%
Second compound 3.16 µM, first compound 0.03 µM
  viability, T/C: 5.63%
Second compound 3.16 µM, first compound 0.0949 µM
  viability, T/C: 2.91%
Second compound 3.16 µM, first compound 0.3 µM
  viability, T/C: 2.49%
Second compound 10 µM, first compound 0.000949 µM
  viability, T/C: 81.4%
Second compound 10 µM, first compound 0.003 µM
  viability, T/C: 39%
Second compound 10 µM, first compound 0.00949 µM
  viability, T/C: 14%
Second compound 10 µM, first compound 0.03 µM
  viability, T/C: 6.45%
Second compound 10 µM, first compound 0.0949 µM
  viability, T/C: 3.27%
Second compound 10 µM, first compound 0.3 µM
  viability, T/C: 2.66%

## Nc1ccn(C2OC(CO)C(O)C2(F)F)c(=O)n1 (stereo not given) + CC(CO)NC(=O)c1cc(-c2ccc(Cl)cc2)nn(-c2cnn(C)c2)c1=O
Second compound 0.1 µM
  IC50: < 31.6 nM
Second compound 0.316 µM
  IC50: < 31.6 nM
Second compound 1 µM
  IC50: < 31.6 nM
Second compound 3.16 µM
  IC50: < 31.6 nM
Second compound 10 µM
  IC50: < 31.6 nM
[1]
  viability, T/C: 4.79%
[2]
  viability, T/C: 4.46%
[3]
  viability, T/C: 2.56%
[4]
  viability, T/C: 4.39%
[5]
  viability, T/C: 3.18%
[6]
  viability, T/C: 4.27%
[7]
  viability, T/C: 5.24%
[8]
  viability, T/C: 4.16%
[9]
  viability, T/C: 4.42%
[10]
  viability, T/C: 3.7%
[11]
  viability, T/C: 4.85%
[12]
  viability, T/C: 6.51%
[13]
  viability, T/C: 5.01%
[14]
  viability, T/C: 3.82%
[15]
  viability, T/C: 4.34%
[16]
  viability, T/C: 4.23%
[17]
  viability, T/C: 4.33%
[18]
  viability, T/C: 4.11%
[19]
  viability, T/C: 5.21%
[20]
  viability, T/C: 4.49%
[21]
  viability, T/C: 4.44%
[22]
  viability, T/C: 4.62%
[23]
  viability, T/C: 4.8%
[24]
  viability, T/C: 5.89%
[25]
  viability, T/C: 4.43%
[26]
  viability, T/C: 3.72%
[27]
  viability, T/C: 4.66%
[28]
  viability, T/C: 4.02%
[29]
  viability, T/C: 5.31%
[30]
  viability, T/C: 6.31%

## O=C(c1cc(Cc2n[nH]c(=O)c3ccccc23)ccc1F)N1CCN(C(=O)C2CC2)CC1 + CC(CO)NC(=O)c1cc(-c2ccc(Cl)cc2)nn(-c2cnn(C)c2)c1=O
Second compound 0.1 µM
  IC50: > 10000 nM
Second compound 0.316 µM
  IC50: > 10000 nM
Second compound 1 µM
  IC50: > 10000 nM
Second compound 3.16 µM
  IC50: > 10000 nM
Second compound 10 µM
  IC50: > 10000 nM
[1]
  viability, T/C: 96.1%
[2]
  viability, T/C: 101%
[3]
  viability, T/C: 98.8%
[4]
  viability, T/C: 102%
[5]
  viability, T/C: 102%
[6]
  viability, T/C: 91.5%
[7]
  viability, T/C: 100%
[8]
  viability, T/C: 102%
[9]
  viability, T/C: 97.9%
[10]
  viability, T/C: 101%
[11]
  viability, T/C: 98.8%
[12]
  viability, T/C: 98.9%
[13]
  viability, T/C: 98.7%
[14]
  viability, T/C: 102%
[15]
  viability, T/C: 99.9%
[16]
  viability, T/C: 103%
[17]
  viability, T/C: 101%
[18]
  viability, T/C: 99%
[19]
  viability, T/C: 97.3%
[20]
  viability, T/C: 109%
[21]
  viability, T/C: 95.3%
[22]
  viability, T/C: 104%
[23]
  viability, T/C: 99.8%
[24]
  viability, T/C: 89.9%
[25]
  viability, T/C: 113%
[26]
  viability, T/C: 107%
[27]
  viability, T/C: 108%
[28]
  viability, T/C: 114%
[29]
  viability, T/C: 107%
[30]
  viability, T/C: 90.9%
